Laboratory results as given in US20060009478A1, “Methods for the treatment of back pain” (priority 2003, published 2006).

What was measured:
[1] = test system: patients with moderate to severe chronic low back pain; assay: Global assessment of study medication, low back pain study; assay type: in vivo, human; conditions: LOCF, ITT
Procedure: Global assessment of study medication was also assessed at clinic visits during the titration and fixed-dose periods. The patient was prompted with the question, “How would you rate the study medication you received during the past week/past two weeks? (Please consider the quality of your pain relief, your side effects, your activity level, your mood and sense of well-being, etc. in this evaluation.)” Responses were selected from poor, fair, good, very good, and excellent.
Global assessment and quality of analgesia ratings were summarized descriptively by treatment group for both the titration and fixed-dose periods. Treatments were compared at each visit in the fixed-dose period, globally and in pairwise fashion, using the Cochran-Mantel-Haenszel row mean scores (CMH-RMS) test, using equally spaced scores.

[2] = test system: patients with moderate to severe chronic pain due to osteoarthritis of the hip or knee; assay: Vital signs, clinical laboratory tests, EKG (QTc interval), 3-week osteoarthritis study; assay type: in vivo, human; conditions: 3-week treatment
Source text: The opioid toxicity assessment included: (A) CNS review by assessing for (1) confusion, altered mental state, (2) excessive drowsiness, lethargy, stupor, (3) slurred speech (new onset), (4) respiratory, (5) hypoventilation, shortness of breath, apnea, (6) hypoxia, hypercarbia; and (b) cardiac review by assessing for bradycardia, hypotension, and shock. If patients experienced any of these or other symptoms that, in the principal investigator's opinion, would pose a significant risk if additional opioid doses were administered, doses were not escalated on Week 2, Day 1 or Week 3, Day 1.

COc1ccc2c3c1O[C@H]1C(=O)CC[C@@]4(O)[C@@H](C2)N(C)CC[C@]314 [OXY QID, oxycodone]
Global assessment EXCELLENT (4), number of patients ([1]; fixed dose period week 1): 14 | Global assessment EXCELLENT (4), percent of patients ([1]; fixed dose period week 1): 6.8% | Global assessment FAIR (1), number of patients ([1]; fixed dose period week 1): 23 | Global assessment FAIR (1), percent of patients ([1]; fixed dose period week 1): 11.2% | Global assessment GOOD (2), number of patients ([1]; fixed dose period week 1): 72 | Global assessment POOR (0), number of patients ([1]; fixed dose period week 1): 33 | Global assessment POOR (0), percent of patients ([1]; fixed dose period week 1): 16.0% | Global assessment VERY GOOD (3), number of patients ([1]; fixed dose period week 1): 63 | Global assessment VERY GOOD (3), percent of patients ([1]; fixed dose period week 1): 30.6% | Global assessment EXCELLENT (4), number of patients ([1]; fixed dose period week 2): 21 | Global assessment EXCELLENT (4), percent of patients ([1]; fixed dose period week 2): 10.2% | Global assessment FAIR (1), number of patients ([1]; fixed dose period week 2): 22 | Global assessment FAIR (1), percent of patients ([1]; fixed dose period week 2): 10.7% | Global assessment GOOD (2), number of patients ([1]; fixed dose period week 2): 79 | Global assessment POOR (0), number of patients ([1]; fixed dose period week 2): 33 | Global assessment POOR (0), percent of patients ([1]; fixed dose period week 2): 16.0% | Global assessment VERY GOOD (3), number of patients ([1]; fixed dose period week 2): 50 | Global assessment EXCELLENT (4), number of patients ([1]; fixed dose period week 4): 20 | Global assessment EXCELLENT (4), percent of patients ([1]; fixed dose period week 4): 9.7% | Global assessment FAIR (1), number of patients ([1]; fixed dose period week 4): 26 | Global assessment FAIR (1), percent of patients ([1]; fixed dose period week 4): 12.6% | Global assessment GOOD (2), number of patients ([1]; fixed dose period week 4): 69 | Global assessment POOR (0), number of patients ([1]; fixed dose period week 4): 37 | Global assessment POOR (0), percent of patients ([1]; fixed dose period week 4): 18.0% | Global assessment VERY GOOD (3), number of patients ([1]; fixed dose period week 4): 53 | Global assessment EXCELLENT (4), number of patients ([1]; fixed dose period week 6): 23 | Global assessment EXCELLENT (4), percent of patients ([1]; fixed dose period week 6): 11.2% | Global assessment FAIR (1), number of patients ([1]; fixed dose period week 6): 28 | Global assessment FAIR (1), percent of patients ([1]; fixed dose period week 6): 13.6% | Global assessment GOOD (2), number of patients ([1]; fixed dose period week 6): 73 | Global assessment POOR (0), number of patients ([1]; fixed dose period week 6): 38 | Global assessment POOR (0), percent of patients ([1]; fixed dose period week 6): 18.4% | Global assessment VERY GOOD (3), number of patients ([1]; fixed dose period week 6): 43 | Global assessment VERY GOOD (3), percent of patients ([1]; fixed dose period week 6): 20.9% | Global assessment EXCELLENT (4), number of patients ([1]; fixed dose period week 8): 20 | Global assessment EXCELLENT (4), percent of patients ([1]; fixed dose period week 8): 9.7% | Global assessment FAIR (1), number of patients ([1]; fixed dose period week 8): 34 | Global assessment FAIR (1), percent of patients ([1]; fixed dose period week 8): 16.5% | Global assessment GOOD (2), number of patients ([1]; fixed dose period week 8): 74 | Global assessment POOR (0), number of patients ([1]; fixed dose period week 8): 36 | Global assessment POOR (0), percent of patients ([1]; fixed dose period week 8): 17.5% | Global assessment VERY GOOD (3), number of patients ([1]; fixed dose period week 8): 41 | Global assessment VERY GOOD (3), percent of patients ([1]; fixed dose period week 8): 19.9% | Global assessment EXCELLENT (4), number of patients ([1]; fixed dose period week 10): 23 | Global assessment EXCELLENT (4), percent of patients ([1]; fixed dose period week 10): 11.2% | Global assessment FAIR (1), number of patients ([1]; fixed dose period week 10): 34 | Global assessment FAIR (1), percent of patients ([1]; fixed dose period week 10): 16.5% | Global assessment GOOD (2), number of patients ([1]; fixed dose period week 10): 65 | Global assessment GOOD (2), percent of patients ([1]; fixed dose period week 10): 31.6% | Global assessment POOR (0), number of patients ([1]; fixed dose period week 10): 38 | Global assessment POOR (0), percent of patients ([1]; fixed dose period week 10): 18.4% | Global assessment VERY GOOD (3), number of patients ([1]; fixed dose period week 10): 45 | Global assessment VERY GOOD (3), percent of patients ([1]; fixed dose period week 10): 21.8% | Global assessment EXCELLENT (4), number of patients ([1]; fixed dose period week 12): 22 | Global assessment EXCELLENT (4), percent of patients ([1]; fixed dose period week 12): 10.7% | Global assessment FAIR (1), number of patients ([1]; fixed dose period week 12): 33 | Global assessment FAIR (1), percent of patients ([1]; fixed dose period week 12): 16.0% | Global assessment GOOD (2), number of patients ([1]; fixed dose period week 12): 75 | Global assessment POOR (0), number of patients ([1]; fixed dose period week 12): 38 | Global assessment POOR (0), percent of patients ([1]; fixed dose period week 12): 18.4% | Global assessment VERY GOOD (3), number of patients ([1]; fixed dose period week 12): 37 | Global assessment VERY GOOD (3), percent of patients ([1]; fixed dose period week 12): 18.0% | Effects on vital signs, laboratory safety tests or QTc interval changes [2]: no clinically meaningful effects
